# From ChEMBL document CHEMBL3045858, “Weed control and sesame (Sesamum indicum L.) response to preplant incorporated herbicides and method of incorporation” (Crop Prot, 2007)
# How the values were obtained:
# Sesamum indicum [1] = test: Phytotoxicity against Sesamum indicum (sesame) plant assessed as stunt in growth at 0.84 kg/ha applied using mixing wheel cultivator (reference value: 0%); type: organism-based; conditions: in vivo, other
# Sesamum indicum [2] = test: Phytotoxicity against Sesamum indicum (sesame) plant assessed as sesame stand at 1.68 kg/ha applied using mixing wheel cultivator relative to control; type: organism-based; conditions: in vivo, other
# Amaranthus tuberculatus [3] = test: Herbicidal activity against Amaranthus tuberculatus at 0.42 kg/ha applied using mixing wheel cultivator; type: functional
# Amaranthus tuberculatus [4] = test: Herbicidal activity against Amaranthus tuberculatus at 1.68 kg/ha applied using mixing wheel cultivator; type: functional
# Sesamum indicum [5] = test: Phytotoxicity against Sesamum indicum (sesame) plant assessed as yield at 0.42 kg/ha applied using mixing wheel cultivator (reference value: 333 kg/ha); type: organism-based; conditions: in vivo, other
# Urochloa platyphylla [6] = test: Herbicidal activity against Urochloa platyphylla at 0.42 kg/ha applied using mixing wheel cultivator; type: functional
# Urochloa platyphylla [7] = test: Herbicidal activity against Urochloa platyphylla at 1.68 kg/ha applied using mixing wheel cultivator; type: functional
# Sesamum indicum [8] = test: Phytotoxicity against Sesamum indicum (sesame) plant assessed as yield at 1.68 kg/ha applied using mixing wheel cultivator (reference value: 333 kg/ha); type: organism-based; conditions: in vivo, other
# Sesamum indicum [9] = test: Phytotoxicity against Sesamum indicum (sesame) plant assessed as sesame stand at 0.84 kg/ha applied using mixing wheel cultivator relative to control; type: organism-based; conditions: in vivo, other
# Urochloa platyphylla [10] = test: Herbicidal activity against Urochloa platyphylla at 0.84 kg/ha applied using mixing wheel cultivator; type: functional
# Amaranthus tuberculatus [11] = test: Herbicidal activity against Amaranthus tuberculatus at 0.84 kg/ha applied using mixing wheel cultivator; type: functional
# Sesamum indicum [12] = test: Phytotoxicity against Sesamum indicum (sesame) plant assessed as yield at 0.84 kg/ha applied using mixing wheel cultivator (reference value: 333 kg/ha); type: organism-based; conditions: in vivo, other
# Sesamum indicum [13] = test: Phytotoxicity against Sesamum indicum (sesame) plant assessed as stunt in growth at 0.42 kg/ha applied using mixing wheel cultivator (reference value: 0%); type: organism-based; conditions: in vivo, other
# Sesamum indicum [14] = test: Phytotoxicity against Sesamum indicum (sesame) plant assessed as stunt in growth at 1.68 kg/ha applied using mixing wheel cultivator (reference value: 0%); type: organism-based; conditions: in vivo, other
# Sesamum indicum [15] = test: Phytotoxicity against Sesamum indicum (sesame) plant assessed as sesame stand at 0.42 kg/ha applied using mixing wheel cultivator relative to control; type: organism-based; conditions: in vivo, other
# Amaranthus tuberculatus [16] = test: Herbicidal activity against Amaranthus tuberculatus at 0.56 kg/ha formulated as prowl EC applied using mixing wheel cultivator; type: functional
# Sesamum indicum [17] = test: Phytotoxicity against Sesamum indicum (sesame) plant assessed as yield at 1.12 kg/ha formulated as prowl EC applied using mixing wheel cultivator (reference value: 333 kg/ha); type: organism-based; conditions: in vivo, other
# Urochloa platyphylla [18] = test: Herbicidal activity against Urochloa platyphylla at 0.56 kg/ha formulated as prowl EC applied using mixing wheel cultivator; type: functional
# Urochloa platyphylla [19] = test: Herbicidal activity against Urochloa platyphylla at 2.24 kg/ha formulated as prowl EC applied using mixing wheel cultivator; type: functional
# Sesamum indicum [20] = test: Phytotoxicity against Sesamum indicum (sesame) plant assessed as stunt in growth at 0.84 kg/ha formulated as prowl H2O applied using mixing wheel cultivator (reference value: 0%); type: organism-based; conditions: in vivo, other
# Sesamum indicum [21] = test: Phytotoxicity against Sesamum indicum (sesame) plant assessed as yield at 0.56 kg/ha formulated as prowl EC applied using mixing wheel cultivator (reference value: 333 kg/ha); type: organism-based; conditions: in vivo, other
# Sesamum indicum [22] = test: Phytotoxicity against Sesamum indicum (sesame) plant assessed as Sesame stand at 1.4 kg/ha formulated as prowl H2O applied using mixing wheel cultivator relative to control; type: organism-based; conditions: in vivo, other
# Sesamum indicum [23] = test: Phytotoxicity against Sesamum indicum (sesame) plant assessed as stunt in growth at 1.12 kg/ha formulated as prowl EC applied using mixing wheel cultivator (reference value: 0%); type: organism-based; conditions: in vivo, other
# Amaranthus tuberculatus [24] = test: Herbicidal activity against Amaranthus tuberculatus at 1.12 kg/ha formulated as prowl EC applied using mixing wheel cultivator; type: functional
# Sesamum indicum [25] = test: Phytotoxicity against Sesamum indicum (sesame) plant assessed as yield at 1.4 kg/ha formulated as prowl H2O applied using mixing wheel cultivator (reference value: 333 kg/ha); type: organism-based; conditions: in vivo, other
# Sesamum indicum [26] = test: Phytotoxicity against Sesamum indicum (sesame) plant assessed as yield at 0.84 kg/ha formulated as prowl H2O applied using mixing wheel cultivator (reference value: 333 kg/ha); type: organism-based; conditions: in vivo, other
# Sesamum indicum [27] = test: Phytotoxicity against Sesamum indicum (sesame) plant assessed as yield at 1.12 kg/ha formulated as prowl H2O applied using mixing wheel cultivator (reference value: 333 kg/ha); type: organism-based; conditions: in vivo, other
# Urochloa platyphylla [28] = test: Herbicidal activity against Urochloa platyphylla at 1.12 kg/ha formulated as prowl H2O applied using mixing wheel cultivator; type: functional
# Amaranthus tuberculatus [29] = test: Herbicidal activity against Amaranthus tuberculatus at 2.24 kg/ha formulated as prowl EC applied using mixing wheel cultivator; type: functional
# Sesamum indicum [30] = test: Phytotoxicity against Sesamum indicum (sesame) plant assessed as stunt in growth at 1.12 kg/ha formulated as prowl H2O applied using mixing wheel cultivator (reference value: 0%); type: organism-based; conditions: in vivo, other
# Sesamum indicum [31] = test: Phytotoxicity against Sesamum indicum (sesame) plant assessed as sesame stand at 1.12 kg/ha formulated as prowl EC applied using mixing wheel cultivator relative to control; type: organism-based; conditions: in vivo, other
# Urochloa platyphylla [32] = test: Herbicidal activity against Urochloa platyphylla at 1.4 kg/ha formulated as prowl H2O applied using mixing wheel cultivator; type: functional
# Urochloa platyphylla [33] = test: Herbicidal activity against Urochloa platyphylla at 0.84 kg/ha formulated as prowl H2O applied using mixing wheel cultivator; type: functional
# Urochloa platyphylla [34] = test: Herbicidal activity against Urochloa platyphylla at 1.12 kg/ha formulated as prowl EC applied using mixing wheel cultivator; type: functional
# Sesamum indicum [35] = test: Phytotoxicity against Sesamum indicum (sesame) plant assessed as stunt in growth at 1.4 kg/ha formulated as prowl H2O applied using mixing wheel cultivator (reference value: 0%); type: organism-based; conditions: in vivo, other
# Sesamum indicum [36] = test: Phytotoxicity against Sesamum indicum (sesame) plant assessed as stunt in growth at 2.24 kg/ha formulated as prowl EC applied using mixing wheel cultivator (reference value: 0%); type: organism-based; conditions: in vivo, other
# Sesamum indicum [37] = test: Phytotoxicity against Sesamum indicum (sesame) plant assessed as sesame stand at 1.12 kg/ha formulated as prowl H2O applied using mixing wheel cultivator relative to control; type: organism-based; conditions: in vivo, other
# Sesamum indicum [38] = test: Phytotoxicity against Sesamum indicum (sesame) plant assessed as sesame stand at 0.56 kg/ha formulated as prowl EC applied using mixing wheel cultivator relative to control; type: organism-based; conditions: in vivo, other
# Sesamum indicum [39] = test: Phytotoxicity against Sesamum indicum (sesame) plant assessed as sesame stand at 0.84 kg/ha formulated as prowl H2O applied using mixing wheel cultivator relative to control; type: organism-based; conditions: in vivo, other
# Amaranthus tuberculatus [40] = test: Herbicidal activity against Amaranthus tuberculatus at 1.4 kg/ha formulated as prowl H2O applied using mixing wheel cultivator; type: functional
# Amaranthus tuberculatus [41] = test: Herbicidal activity against Amaranthus tuberculatus at 0.84 kg/ha formulated as prowl H2O applied using mixing wheel cultivator; type: functional
# Sesamum indicum [42] = test: Phytotoxicity against Sesamum indicum (sesame) plant assessed as yield at 2.24 kg/ha formulated as prowl EC applied using mixing wheel cultivator (reference value: 333 kg/ha); type: organism-based; conditions: in vivo, other
# Sesamum indicum [43] = test: Phytotoxicity against Sesamum indicum (sesame) plant assessed as stunt in growth at 0.56 kg/ha formulated as prowl EC applied using mixing wheel cultivator (reference value: 0%); type: organism-based; conditions: in vivo, other
# Amaranthus tuberculatus [44] = test: Herbicidal activity against Amaranthus tuberculatus at 1.12 kg/ha formulated as prowl H2O applied using mixing wheel cultivator; type: functional
# Sesamum indicum [45] = test: Phytotoxicity against Sesamum indicum (sesame) plant assessed as sesame stand at 2.24 kg/ha formulated as prowl EC applied using mixing wheel cultivator relative to control; type: organism-based; conditions: in vivo
smiles,measurement,setting,value
C=C(C)CN(CC)c1c([N+](=O)[O-])cc(C(F)(F)F)cc1[N+](=O)[O-] [ETHALFLURALIN],Activity,Sesamum indicum [1],2%
same,Activity,Sesamum indicum [2],52%
same,Activity,Amaranthus tuberculatus [3],82%
same,Activity,Amaranthus tuberculatus [4],93%
same,Crop_yield,Sesamum indicum [5],428 kg/ha
same,Activity,Urochloa platyphylla [6],69%
same,Activity,Urochloa platyphylla [7],97%
same,Crop_yield,Sesamum indicum [8],143 kg/ha
same,Activity,Sesamum indicum [9],78%
same,Activity,Urochloa platyphylla [10],95%
same,Activity,Amaranthus tuberculatus [11],92%
same,Crop_yield,Sesamum indicum [12],527 kg/ha
same,Activity,Sesamum indicum [13],4%
same,Activity,Sesamum indicum [14],4%
same,Activity,Sesamum indicum [15],95%
CCC(CC)Nc1c([N+](=O)[O-])cc(C)c(C)c1[N+](=O)[O-] [PENDIMETHALIN],Activity,Amaranthus tuberculatus [16],85%
same,Crop_yield,Sesamum indicum [17],382 kg/ha
same,Activity,Urochloa platyphylla [18],63%
same,Activity,Urochloa platyphylla [19],85%
same,Activity,Sesamum indicum [20],0%
same,Crop_yield,Sesamum indicum [21],367 kg/ha
same,Activity,Sesamum indicum [22],38%
same,Activity,Sesamum indicum [23],3%
same,Activity,Amaranthus tuberculatus [24],74%
same,Crop_yield,Sesamum indicum [25],240 kg/ha
same,Crop_yield,Sesamum indicum [26],534 kg/ha
same,Crop_yield,Sesamum indicum [27],288 kg/ha
same,Activity,Urochloa platyphylla [28],80%
same,Activity,Amaranthus tuberculatus [29],90%
same,Activity,Sesamum indicum [30],4%
same,Activity,Sesamum indicum [31],55%
same,Activity,Urochloa platyphylla [32],73%
same,Activity,Urochloa platyphylla [33],71%
same,Activity,Urochloa platyphylla [34],83%
same,Activity,Sesamum indicum [35],14%
same,Activity,Sesamum indicum [36],16%
same,Activity,Sesamum indicum [37],53%
same,Activity,Sesamum indicum [38],80%
same,Activity,Sesamum indicum [39],90%
same,Activity,Amaranthus tuberculatus [40],83%
same,Activity,Amaranthus tuberculatus [41],96%
same,Crop_yield,Sesamum indicum [42],233 kg/ha
same,Activity,Sesamum indicum [43],3%
same,Activity,Amaranthus tuberculatus [44],84%
same,Activity,Sesamum indicum [45],27%
CCCN(CCC)c1c([N+](=O)[O-])cc(C(F)(F)F)cc1[N+](=O)[O-] [TRIFLURALIN],Activity,Sesamum indicum [1],2%
same,Activity,Sesamum indicum [2],67%
same,Activity,Amaranthus tuberculatus [3],90%
same,Activity,Amaranthus tuberculatus [4],92%
same,Crop_yield,Sesamum indicum [5],587 kg/ha
same,Activity,Urochloa platyphylla [6],86%
same,Activity,Urochloa platyphylla [7],96%
same,Crop_yield,Sesamum indicum [8],406 kg/ha
same,Activity,Sesamum indicum [9],76%
same,Activity,Urochloa platyphylla [10],91%
same,Activity,Amaranthus tuberculatus [11],85%
same,Crop_yield,Sesamum indicum [12],342 kg/ha
same,Activity,Sesamum indicum [13],0%
same,Activity,Sesamum indicum [14],4%
same,Activity,Sesamum indicum [15],99%
